The structures appear in SMILES notation. Structures can show the parent of a compound that is named as a salt. Where two headings read alike, the source gives them in different places. A value given as a limit tells only on which side of the number the result lay.

A short description of data set [1]: FAERS analysis of reported rhabdomyolysis cases per suspect drug. The following applies: for (%) of total rhabdomyolysis cases / Number of Rhabdomyolysis Cases / Number of Rhabdomyolysis Cases (n = 6583): FAERS 2004 to 31 March 2020; for (%) of total rhabdomyolysis cases: of 27,140 cases; for Number of Rhabdomyolysis Cases: total 27,140 rhabdomyolysis cases, some cases with more than one suspected drug; for ROR (reported odds ratio): rhabdomyolysis with suspected drug vs all other drugs in FAERS; for Number of Death Cases (n = 576): monotherapy rhabdomyolysis cases with fatal outcome; for (%) of monotherapy rhabdomyolysis cases: of 6583 cases; for Number of Rhabdomyolysis Cases (n = 6583): suspected drug reported as a single drug used (monotherapy).
Protocol: Due to the quarterly updating of the database by the FDA, the searches were performed using the term “rhabdomyolysis” on one occasion to ensure the data were extracted at that specified period. All individual files were downloaded and saved from this one timepoint to specify the analysis period used in this study. Further refinement was performed using Microsoft Excel to extract only cases where the suspect drug was reported as a monotherapy, using the generic name of the suspect drugs. To ensure data accuracy, any case reported by a consumer or company underwent further checks to ensure it had not been previously reported by a healthcare provider, by confirming that no duplication of case ID was present.

The test system of another data set is L6 cells. Description: Acute metabolic switch assay (cellular ATP content, glucose vs galactose media) in L6 differentiated myotubes. Conditions: for IC50-ATPglu/IC50-ATPgal: ratio ≥ 2 = mitotoxic. The method, then: They were then seeded into collagen-coated wells (50 µg/mL in 0.02 M of acetic acid) at a density of 16,000 cells/100 μL/well (96 well plates) and 10,000 cells/100 μL/well (XF 96-well cell culture microplates). The cells were next incubated for 24 h in complete growth medium to promote adherence, after which the growth medium was removed and the cells washed twice with 1× HBSS. The L6 myoblasts were then cultured in differentiation medium consisting of high-glucose DMEM (25 mM) supplemented with L-glutamine (4 mM), sodium pyruvate (1 mM), HEPES (5 mM), and horse serum (2% v/v). Fresh differentiation medium was provided every 48 h for 7 days.
On the day of the assay, the media on the differentiated myotubes were replaced with either serum-free high-glucose (DMEM, 25 mM of glucose, 4 mM of L-glutamine, 1 mM of sodium pyruvate, and 5 mM of HEPES) or serum-free galactose (DMEM, 10 mM of galactose, 6 mM of L-glutamine, 1 mM of sodium pyruvate, and 5 mM of HEPES) media (100 µL) for 2 h (37 °C, 5% CO2). The glucose and galactose media were removed and replaced with drug-dosing solutions in either glucose or galactose media as appropriate, before incubation (2 h, 37 °C, 5% CO2). […] Vehicle control was included in each experiment.
The cellular ATP content was measured using a bioluminescence assay kit, alongside the concomitant measurement of protein using a bicinchoninic acid (BCA) assay kit to normalise ATP data to the total protein. Briefly, the cells were lysed using ATP lysis buffer (50 µL/well) and the plate was shaken (5 min). According to the manufacturer’s instructions, 40 µL of ATP reagent was added to each well containing 5 µL of cell lysate in a white 96-well plate. The […] luminescence signal was measured immediately using a plate reader (Varioskan, Thermo Scientific, Schaumburg, IL USA).

The mark [2] stands for this setting: Rattus norvegicus, L6, 2 h, read-out: ATP IC50 Galactose.
Setting [3] is: Rattus norvegicus, L6, 2 h, read-out: ATP IC50 Glucose.

As for `O=C1CCc2ccc(OCCCCN3CCN(c4cccc(Cl)c4Cl)CC3)cc2N1` [Aripiprazole], in data set [1], the “(%) of total rhabdomyolysis cases” value was determined as 1.5%, the “Number of Rhabdomyolysis Cases” value is given as 419 and the “ROR (reported odds ratio)” value came to 0.4.

Regarding `CN1CCN(C2=Nc3cc(Cl)ccc3Nc3ccccc32)CC1` [Clozapine], in data set [1], the “(%) of total rhabdomyolysis cases” value is reported as 1.1%, the “Number of Rhabdomyolysis Cases” value was determined as 286, the “Number of Death Cases (n = 576)” value is given as 12 and the “(%) of monotherapy rhabdomyolysis cases” value stood at 1.8%. The “Number of Rhabdomyolysis Cases (n = 6583)” value (“Number … (n = 6583)” for short) in data set [1] came to 116.

As to `CC(=O)Nc1ccc(O)cc1` [Acetaminophen], in data set [1], the “(%) of total rhabdomyolysis cases” value is on record as 1.7%, the “Number of Rhabdomyolysis Cases” value turned out to be 449 and the “ROR (reported odds ratio)” value was found to be 0.3.

For `CC[C@H]1OC(=O)[C@H](C)[C@@H](O[C@H]2C[C@@](C)(OC)[C@@H](O)[C@H](C)O2)[C@H](C)[C@@H](O[C@@H]2O[C@H](C)C[C@H](N(C)C)[C@H]2O)[C@](C)(OC)C[C@@H](C)C(=O)[C@H](C)[C@@H](O)[C@]1(C)O` [Clarithromycin], in data set [1], the “(%) of total rhabdomyolysis cases” value is 1.6%, the “Number of Rhabdomyolysis Cases” value is 427 and the “ROR (reported odds ratio)” value came to 1.2.

As for `Cc1cc2c(s1)Nc1ccccc1N=C2N1CCN(C)CC1` [Olanzapine], the “Number of Death Cases (n = 576)” value in data set [1] was found to be 23.

Take `Nc1nnc(-c2cccc(Cl)c2Cl)c(N)n1` [Lamotrigine]: in data set [1], the “(%) of total rhabdomyolysis cases” value was found to be 1.2%, the “Number of Rhabdomyolysis Cases” value is 314 and the “ROR (reported odds ratio)” value was found to be 0.3.

As for `COc1ccc2[nH]c([S+]([O-])Cc3ncc(C)c(OC)c3C)nc2c1` (centres unmarked) [Omeprazole], in data set [1], the “(%) of total rhabdomyolysis cases” value came to 1.3%, the “Number of Rhabdomyolysis Cases” value worked out at 363 and the “ROR (reported odds ratio)” value was 0.5.

As usually defined, the IC50 is the midpoint of a concentration-inhibition curve. Regarding `CCC(C)(C)C(=O)O[C@H]1C[C@@H](C)C=C2C=C[C@H](C)[C@H](CC[C@@H](O)C[C@@H](O)CC(=O)O)[C@H]21` [Simvastatin acid, Simvastatin hydroxy acid ammonium salt], the IC50-ATPglu/IC50-ATPgal in the data set on L6 cells (L6 cells, 2 h exposure) is ~1 (n/d); in the data set with L6 cells (L6 cells, 2 h exposure, listed as simvastatin acid) it was 1. Also, the IC50 with L6 cells (setting [2]) and with L6 cells (setting [3]) was above 300 µM each time.

With `COc1ccc(C(CN(C)C)C2(O)CCCCC2)cc1` (centres unmarked) [Venlafaxine], in data set [1], the “(%) of total rhabdomyolysis cases” value came out at 1.6%, the “Number of Rhabdomyolysis Cases” value is recorded as 425 and the “ROR (reported odds ratio)” value was 0.5.

For `O=C1[C@H](CC[C@H](O)c2ccc(F)cc2)[C@@H](c2ccc(O)cc2)N1c1ccc(F)cc1` [Ezetimibe], in data set [1], the “(%) of total rhabdomyolysis cases” value was determined as 1.9%, the “Number of Rhabdomyolysis Cases” value is given as 501, the “Number of Death Cases (n = 576)” value was determined as 6 and the “(%) of monotherapy rhabdomyolysis cases” value came out at 2.5%. Besides, in data set [1], the “ROR (reported odds ratio)” value is listed as 2.6 and the “Number … (n = 6583)” value is 166. Moreover, the IC50-ATPglu/IC50-ATPgal with L6 cells (L6 cells, 2 h exposure) was ~1 (n/d). In addition, the IC50-ATPglu/IC50-ATPgal in the data set with L6 cells (L6 cells, 2 h exposure, listed as ezetimibe) is on record as 1. Also, the 50% inhibitory concentration (IC50) in the data set with L6 cells (setting [2]) is above 300 µM. The IC50 in the data set on L6 cells (setting [3]) was above 300 µM.

Take `CN(C)C(=N)N=C(N)N` [Metformin]: in data set [1], the “(%) of total rhabdomyolysis cases” value is 1.8%, the “Number of Rhabdomyolysis Cases” value amounted to 478 and the “ROR (reported odds ratio)” value is recorded as 0.4.

On to `CC(=O)Oc1ccccc1C(=O)O` [Aspirin], for which, in data set [1], the “(%) of total rhabdomyolysis cases” value stood at 1.2%, the “Number of Rhabdomyolysis Cases” value came out at 313 and the “ROR (reported odds ratio)” value was 0.2.

As for `CC(C)c1nc(N(C)S(C)(=O)=O)nc(-c2ccc(F)cc2)c1/C=C/[C@@H](O)C[C@@H](O)CC(=O)O` [Rosuvastatin], in data set [1], the “(%) of total rhabdomyolysis cases” value stood at 7.4%, the “Number of Rhabdomyolysis Cases” value is given as 2008, the “Number of Death Cases (n = 576)” value came to 47 and the “(%) of monotherapy rhabdomyolysis cases” value is on record as 17.0%. Further, in data set [1], the “ROR (reported odds ratio)” value is on record as 2.9 and the “Number … (n = 6583)” value worked out at 1122. Also, in the data set on L6 cells (L6 cells, 2 h exposure), the IC50-ATPglu/IC50-ATPgal is ~1 (n/d). In the data set with L6 cells (L6 cells, 2 h exposure, listed as rosuvastatin), the IC50-ATPglu/IC50-ATPgal was determined as 1. In the data set on L6 cells (setting [2]), the IC50 was above 300 µM. Also, in the data set with L6 cells (setting [3]), the half-inhibitory concentration (IC50) is above 300 µM.

In the case of `CC(C)c1c(C(=O)Nc2ccccc2)c(-c2ccccc2)c(-c2ccc(F)cc2)n1CC[C@@H](O)C[C@@H](O)CC(=O)O` [Atorvastatin acid], the IC50-ATPglu/IC50-ATPgal with L6 cells (L6 cells, 2 h exposure) is ~1 (n/d); with L6 cells (L6 cells, 2 h exposure, listed as atorvastatin acid), 1. The IC50 in the data set with L6 cells (read-out: ATP IC50 Galactose, L6 cells, 2 h exposure, galactose serum-free media, mean ± S.D. (n = 3)) is above 300 µM; in the data set with L6 cells (read-out: ATP IC50 Glucose, L6 cells, 2 h exposure, glucose serum-free media, mean ± S.D. (n = 3)), above 300 µM.

With `CC(C)c1c(C(=O)Nc2ccccc2)c(-c2ccccc2)c(-c2ccc(F)cc2)n1CC[C@@H](O)C[C@@H](O)CC(=O)O` [Atorvastatin], in data set [1], the “(%) of total rhabdomyolysis cases” value was found to be 12.2%, the “Number of Rhabdomyolysis Cases” value is reported as 3307, the “Number of Death Cases (n = 576)” value was 169 and the “(%) of monotherapy rhabdomyolysis cases” value amounted to 21.1%. In data set [1], the “ROR (reported odds ratio)” value is listed as 4.3 and the “Number … (n = 6583)” value came out at 1386.

Regarding `NS(=O)(=O)c1cc(C(=O)O)c(NCc2ccco2)cc1Cl` [Furosemide], in data set [1], the “(%) of total rhabdomyolysis cases” value is 1.8%, the “Number of Rhabdomyolysis Cases” value turned out to be 480 and the “ROR (reported odds ratio)” value is recorded as 0.8.

`CC[C@@H](C(N)=O)N1CCCC1=O` [Levetiracetam]: in data set [1], the “(%) of total rhabdomyolysis cases” value is recorded as 2.2%, the “Number of Rhabdomyolysis Cases” value was 588, the “Number of Death Cases (n = 576)” value amounted to 8 and the “(%) of monotherapy rhabdomyolysis cases” value is on record as 5.9%. In data set [1], the “ROR (reported odds ratio)” value was found to be 0.9 and the “Number … (n = 6583)” value turned out to be 386. For the same compound, the IC50-ATPglu/IC50-ATPgal in the data set on L6 cells (L6 cells, 2 h exposure) is ~1 (n/d). In the data set with L6 cells (L6 cells, 2 h exposure, listed as levetiracetam), the IC50-ATPglu/IC50-ATPgal was found to be 1. Further, in the data set on L6 cells (setting [2]), the half-maximal inhibitory concentration (IC50) was above 300 µM. The IC50 with L6 cells (setting [3]) is above 300 µM.

For the compound `O=C(CCCN1CCC(O)(c2ccc(Cl)cc2)CC1)c1ccc(F)cc1` [Haloperidol], in data set [1], the “(%) of total rhabdomyolysis cases” value came to 1.1%, the “Number of Rhabdomyolysis Cases” value amounted to 310 and the “ROR (reported odds ratio)” value is given as 1.3.

For `OCCOCCN1CCN(C2=Nc3ccccc3Sc3ccccc32)CC1` [Quetiapine], in data set [1], the “(%) of total rhabdomyolysis cases” value is 2.8%, the “Number of Rhabdomyolysis Cases” value is reported as 761, the “Number of Death Cases (n = 576)” value is given as 26 and the “(%) of monotherapy rhabdomyolysis cases” value is recorded as 3.0%. Further, the “Number … (n = 6583)” value in data set [1] amounted to 199.

As for `CN[C@H]1CC[C@@H](c2ccc(Cl)c(Cl)c2)c2ccccc21` [Sertraline], in data set [1], the “(%) of total rhabdomyolysis cases” value is reported as 1.3%, the “Number of Rhabdomyolysis Cases” value turned out to be 347 and the “ROR (reported odds ratio)” value is 0.4.

Take `Cc1nnc2n1-c1ccc(Cl)cc1C(c1ccccc1)=NC2` [Alprazolam]: in data set [1], the “(%) of total rhabdomyolysis cases” value is 1.1%, the “Number of Rhabdomyolysis Cases” value amounted to 290 and the “ROR (reported odds ratio)” value was 0.4.

On to `Cc1ccc(C)c(OCCCC(C)(C)C(=O)O)c1` [Gemfibrozil], for which, in data set [1], the “(%) of total rhabdomyolysis cases” value turned out to be 1.6%, the “Number of Rhabdomyolysis Cases” value was 442 and the “ROR (reported odds ratio)” value is 15.0. Besides, the “ROR (reported odds ratio)” value in data set [1] (listed as gemfibrozil) was found to be 15.

The values above are taken from publication PMC10216605, “Developing In Vitro Models to Define the Role of Direct Mitochondrial Toxicity in Frequently Reported Drug-Induced Rhabdomyolysis” (Biomedicines, 2023).
